Assay [1] deals with rat remnant kidney model. Nature of the assay: Efficacy in rat remnant kidney model of nephropathy (renal mass reduction). It counts as in vivo. The following applies: for Mortality Rates in Remnant Kidney Model / Mortality compared to the vehicle treated group: in drinking water; for Mortality Rates in Remnant Kidney Model: started 21 days after RMR, n=12/group; for Mortality compared to the vehicle treated group: Compound 1 30 mg/kg/d, losartan 10 mg/kg; for percentage of sclerotic glomeruli compared with vehicle: renal histology at termination of the experiment; for number of ED 1 positive cells per field (monocytes/macrophages in the renal interstitium): renal histology at termination, not statistically significant vs vehicle (61±5). From the text: (§1) The rat remnant kidney model is an animal model of severe progressive renal failure. In this model, a state of severe progressive renal failure is produced by renal mass reduction (RMR) through removal of one kidney and ligation of several branches of the renal artery, resulting in infarction and loss of function of two thirds of the remaining kidney. The procedure creates the conditions of severe hypertension, proteinuria, progressive renal function deterioration, tubulointerstitial damage and glomerulosclerosis (Olson J L, Hostetter T H, Rennke H G, Brenner B M, Venkatachalam M A: “Altered glomerular permselectivity and progressive sclerosis following extreme ablation of renal mass”. Kidney Int 22:112-126, 1982).
Nephropathy is evident as a progressively increasing amount of protein in urine, increases in serum creatinine and increases in arterial pressure. In addition, severe sclerosis of the glomeruli, inflammatory cell infiltration and tubular damage are measurable through histological analysis within 3 months of RMR. These measures form the basis for determining efficacy in the model. Urine protein, serum creatinine and arterial pressure are similarly measured in humans to determine impact of treatments on disease progression.
The aim of this study was to evaluate the effects of Compound 1 compared to an angiotensin receptor blocker (losartan), as well as the combination treatment with Compound 1 and losartan, on proteinuria and renal disease progression in this model. The effectiveness of these agents has been associated with reductions in proteinuria, slowing of the rate of rise in serum creatinine and reduction in glomerular sclerosis and thus slowing of the progression to end stage renal failure.
(§2) Treatment groups (n=12/group) included vehicle; Compound 1 at 30 mg/kg/d; losartan at 10 mg/kg; and losartan at 10 mg/kg+Compound 1 at 30 mg/kg/d. All compounds were administered in drinking water. An additional sham-operated untreated group was also included. Measurements were made at 21 d after RMR but before treatment, and at one and two months of treatment.
At the termination of the experiment kidneys were examined quantitatively for histopathological damage. […] Accumulation of monocytes/macrophages in the renal interstitium was quantified as the number of ED 1 (an antibody to CD68, a monocyte/macrophage specific antigen) positive cells per field.

Assay [2] relates to rat remnant kidney model. Description: Blood pressure in rat remnant kidney model. It is filed as in vivo. The following applies: 1- and 2-months of treatment.
From the text: as §1
Treatments were started 21 days after RMR, when animals already had overt nephropathy. Treatment groups (n=12/group) included vehicle; Compound 1 at 30 mg/kg/d; losartan at 10 mg/kg; and losartan at 10 mg/kg+Compound 1 at 30 mg/kg/d. All compounds were administered in drinking water. An additional sham-operated untreated group was also included. Measurements were made at 21 d after RMR but before treatment, and at one and two months of treatment. Mortality was less in the Compound 1, losartan and Compound 1+ losartan groups compared to the vehicle treated group (Table 1). […]

The test system of a further assay is remnant kidney model. Description: Water intake and diuresis in remnant kidney model. It is filed as in vivo, rat. The following applies: mean ± S.E.
From the text: as §1, §2

The mark [3] stands for this setting: 2 month of treatment, n = 10, 10 and 11.
Where [4] appears, read: Pre-treatment (21 d after RMR), n = 12.

This is an account of results in patent US20100093701A1, “COMBINATION THERAPY COMPRISING ANGIOTENSIN RECEPTOR BLOCKERS AND VASOPRESSIN RECEPTOR ANTAGONISTS” (priority 2008, published 2010).

Molecules are shown by their SMILES.

With `COc1cc(C(=O)N2CC[C@]3(C=C(C(=O)O)CC3)Cc3ccccc32)ccc1NC(=O)c1cc(F)ccc1Cl` [Compound 1], in the assay with rat remnant kidney model [1] (1 month of treatment), the “Mortality Rates in Remnant Kidney Model” value was 12/12. In addition, the “Mortality Rates in Remnant Kidney Model” value with rat remnant kidney model [1] (2 month of treatment) is recorded as 2/12. Further, in the assay on rat remnant kidney model [1], the “Mortality compared to the vehicle treated group” value is recorded as “less”, the “percentage of sclerotic glomeruli compared with vehicle” value was “tended to decrease” and the “number of ED 1 positive cells per field (monocytes/macrophages in the renal interstitium)” value was 45±5 positive cells per field. Besides, in the assay on rat remnant kidney model [1] (at 1 and 2 months of treatment), the “serum creatinine compared to the vehicle group” value was “reduced” and the “urine protein excretion compared to the vehicle group” value was “reduced”. Further, in the assay with rat remnant kidney model [2], the “arterial pressure compared to vehicle” value is “tended to decrease”. In the assay with remnant kidney model (1 month of treatment, n = 12), this compound had a diuresis of 47 ± 4 mL/24 h and a water intake of 70 ± 8 mL/24 h. Further, in the assay with remnant kidney model (setting [3]), the diuresis is given as 43 ± 5 mL/24 h and the water intake was 72 ± 10 mL/24 h. Also, in the assay on remnant kidney model (setting [4]), the diuresis was 44 ± 3 mL/24 h and the water intake amounted to 65 ± 2 mL/24 h. In the assay on remnant kidney model (basal, n = 12), this compound gave a diuresis of 19 ± 1 mL/24 h and a water intake of 43 ± 2 mL/24 h.

As to `CCCCc1nc(Cl)c(CO)n1Cc1ccc(-c2ccccc2-c2nn[nH]n2)cc1` [losartan], the “Mortality Rates in Remnant Kidney Model” value in the assay with rat remnant kidney model [1] (1 month of treatment) is 12/12. Further, in the assay with rat remnant kidney model [1] (2 month of treatment), the “Mortality Rates in Remnant Kidney Model” value is 2/12. For the same compound, in the assay on rat remnant kidney model [1], the “Mortality compared to the vehicle treated group” value is given as “less”, the “percentage of sclerotic glomeruli compared with vehicle” value is listed as “significant reduction” and the “number of ED 1 positive cells per field (monocytes/macrophages in the renal interstitium)” value is 38±6 positive cells per field. In the assay on rat remnant kidney model [1] (at 1 and 2 months of treatment), the “serum creatinine compared to the vehicle group” value is given as “reduced”, the “statistical significance of the effect on urine protein excretion” value is “not statistically significant” and the “urine protein excretion compared to the vehicle group” value was “reduced”. For the same compound, the “arterial pressure compared to vehicle” value in the assay with rat remnant kidney model [2] is listed as “statistically significant decrease”. Besides, in the assay on remnant kidney model (1 month of treatment, n = 12), the diuresis is on record as 45 ± 3 mL/24 h and the water intake is given as 77 ± 4 mL/24 h. In the assay on remnant kidney model (setting [3]), this compound gave a diuresis of 45 ± 4 mL/24 h and a water intake of 76 ± 5 mL/24 h. In addition, in the assay on remnant kidney model (setting [4]), the diuresis stood at 45 ± 3 mL/24 h and the water intake stood at 68 ± 4 mL/24 h. In the assay on remnant kidney model (basal, n = 12), this compound gave a diuresis of 20 ± 1 mL/24 h and a water intake of 46 ± 2 mL/24 h.
